“And” between values parts separate entries of the source, which are not always exact repeats. Identical values can stand only once.
How the values were obtained:
[1] = system: L-1210 Leukemia; assay: activity vs L-1210 leukemia (T/C % survival time), Table 3; format: in vivo, mice; conditions: >130 significant, hydrochloride
Text: 3,4-Dihydroxybenzamidoxime and 3,4,5-trihydroxybenzamidoxime were subjected to a further series of tests against various transplanted tumors in mice according to the following protocols:
For L-1210 lymphoid leukemia, 20 grams CDF1 or BDF1 mice […] ip with 10^5 leukemia cells. The drug was given one day after tumor inoculation continued for an additional eight days. The mean survival time for the treated animal was compared to that of the control group. In the table, column 1 gives the name of the compound, column 2 the dose levels, and column 3 treated over control percent survival time. (In other words, a figure of 175 indicates a 75% increase in survival time.)

[2] = free radical scavenging ability (destruction of diphenylpicrylhydrazyl), Table 7; conditions: 100 μM diphenylpicrylhydrazyl in acetone; test compound 25 μM, 2.5 μM (footnote)
Text: It is believed that the antineoplastic activity of the compounds of this invention is due in parts to their ability to scavenge free-radicals. Additionally, the compounds of this invention are cancer protective agents and this utility also may be a manifestation of their free-radical scavenging capability. Free-radical scavenging agents may also be useful in detoxifying mammals in whom an excess of free radicals is a cause and/or result of the toxicity. Other possible uses of free radical scavengers are to inhibit protaglandin transformation, leucotriene interconversion and lipogenesis, to act as inflammatory modulators and as food additive or preservatives to prevent lipid oxidation. The free radical scavenging ability of the compounds of the invention was determined by measuring the destruction of the stable free radical, diphenylpicrylhydrazyl, in the presence of the test compound in a manner similar to that reported by […] and Herzmann, Naturwiss, 47, 133-134 (1960). […] The test compound was added at a final concentration of 25 μM and the rate of reduction of absorpotion at […] was observed. Table 7 below gives the free radical scavenging abilities of the compounds of this invention expresses as the initial rate of decrease in optical density units/min.

[3] = system: arachidonic acid induced ear edema; assay: arachidonic acid induced ear edema assay, Table 10; format: in vivo, Mice; conditions: Experiment 1, 2 mg total dose, topical; for Mean Increase in Weight of Inflammed Ear (± S.E.): positive control 17.0 ± 0.6, p = .000
Procedure: The compounds of this invention because of their ability to scavenge free-radicals in vivo are capable of modulating inflammation as set forth in the following protocol: Mice received the test compound topically to each side of the right ear one hr prior to the inflammatory challenge, at which time they were challenged (except for the negative control) with 10 microliter of a 2 mg/20 microliter solution of arachidonic acid applied to each side of the right ear. One hour post-challenge, the animals were sacrificed, the right ears removed, and an 8 mm disc punched from each. These discs were then weighed. The following table gives the results of this experiment.

[4] = system: L1210 leukemia; assay: antitumor activity in L1210 leukemia (percent increase in survival time), Table 2; format: in vivo, mice; conditions: 8 days
Procedure: Testing of the compounds of this invention against L-1210 lymphoid leukemia were carried out as follows: L-1210 leukemia was maintained by weekly passage of 10^5 L-1210 cells intraperitoneally into DBA/2 mice. Diluted ascitic fluid, 0.1 ml. (10^5 cells), was administered ip to female B6D2 F1 mice weighing about 20 g. Drugs were administered ip 24 hours after tumor transplantation and injections were continued daily for a total of eight days. A group of control mice receiving only the injection medium were maintained. Table 2 which follows gives the antitumor activity against L-1210 leukemia for certain compounds of this invention. In the table, column 1 gives the name of the compound, column 2 the dose in mg./kg., and column 3 the percent increase in survival time over controls at each dose level.

[5] = system: P388 Leukemia; assay: activity vs P388 leukemia (T/C % survival time), Table 6; format: in vivo, mice; conditions: five treatments, >130 significant
Procedure: The following protocol was used:
CDF1 mice were injected ip with 10^6 cells The drug was administered in the first day after tumor inoculation and continued daily for five treatments. The mean survival time of the treated group compared to the non-treated control group equals T/C×100=T/C percent.

[6] = biological target: T1, Δ^5-lipoxygenase (Rattus norvegicus, UniProt P12527); assay: ability to inhibit Δ^5-lipoxygenase; format: biochemical; conditions: RBL-1 cell supernatant
T1 construct: supernatant fraction of lysed rat basophilic leukemia (RBL-1) cells; endogenous in cells; host or cells: RBL-1 cells, 49,000 g supernatant of homogenate
T1 sequence (P12527 1-673): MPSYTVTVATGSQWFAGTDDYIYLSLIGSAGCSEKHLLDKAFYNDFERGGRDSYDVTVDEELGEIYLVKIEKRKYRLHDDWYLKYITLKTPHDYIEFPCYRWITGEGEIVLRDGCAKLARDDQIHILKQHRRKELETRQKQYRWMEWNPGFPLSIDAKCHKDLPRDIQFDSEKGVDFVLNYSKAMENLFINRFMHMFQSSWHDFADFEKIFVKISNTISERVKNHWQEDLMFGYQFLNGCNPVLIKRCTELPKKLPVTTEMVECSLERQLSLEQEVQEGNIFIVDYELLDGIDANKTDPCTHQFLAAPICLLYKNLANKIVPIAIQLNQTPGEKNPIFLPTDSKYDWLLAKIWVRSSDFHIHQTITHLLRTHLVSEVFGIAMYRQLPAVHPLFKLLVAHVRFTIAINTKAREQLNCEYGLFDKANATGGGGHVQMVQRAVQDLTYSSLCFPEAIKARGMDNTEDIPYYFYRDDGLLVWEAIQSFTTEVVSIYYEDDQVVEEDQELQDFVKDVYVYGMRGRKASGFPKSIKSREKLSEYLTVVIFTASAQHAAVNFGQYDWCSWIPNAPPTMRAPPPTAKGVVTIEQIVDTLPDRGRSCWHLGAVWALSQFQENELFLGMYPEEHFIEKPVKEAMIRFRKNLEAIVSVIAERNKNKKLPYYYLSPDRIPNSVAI
Procedure: This enzyme is believed to initiate the synthesis of slow reacting substance of […]), an important mediator in the pathogenesis of asthma. Thus, a drug capable of inhibiting this enzyme would also help to prevent asthmatic attacks. In this determination, Δ^5 -lipoxygenase was derived from the supernatant fraction of lysed rat basophilic leukemia (RBL-1) cells. […] The Δ^5 -lipoxygenase was derived from RBL-1 cells which were lysed by homogenization in ice-cold buffer (50 mM Tris-HCl buffer, pH 7.2, containing 1 mM EDTA and 14 uM indomethacin). The homogenate was centrifuged at 4 ° C. at 49,000 g for 20 min and the resulting supernatant fraction was used as the source of Δ^5 -lipoxygenase. The enzyme was assayed at 37° using 6.7 uM (0.39 uCi/ml) [1-14C]arachidonic acid as the substrate in 50 mM Tris-HCl buffer, pH 7.2, containing 1 mM gluthatione, 3 mM CaCl2, 14 uM indomethacin, and 0.25 to 0.50 mM EDTA. […] The effect of compounds on Δ^5 -lipoxygenase activity was determined by preincubating the enzyme for 10 min at 30° in the presence or absence of various concentrations of the drug prior to addition of substrate.

[7] = system: L1210; assay: antileukemia activity of nitriles vs L1210, Table 8; format: in vivo
Text: (§1) Table 8 which follows gives anti-tumor data vs L-1210 and P-388 leukemia for these novel nitriles.

[8] = system: P-388; assay: antileukemia activity of nitriles vs P-388, Table 8; format: in vivo
Text: as §1

## Cl.NC(=NO)c1cc(O)c(O)c(O)c1 [3,4,5-trihydroxybenzamidoxime.HCl, 3,4,5-Trihydroxybenzamidoxime hydrochloride]
[1]; 25 mg/kg
  t/c % (mean survival time): 136% and 121%
[1]; 50 mg/kg
  t/c % (mean survival time): 138% and 137%
[1]; 100 mg/kg
  t/c % (mean survival time): 152% and 137%
[1]; 200 mg/kg
  t/c % (mean survival time): 212% and 182%
[2]
  initial rate of decrease in optical density (518 nm): 0.929 units/min.
[3]
  Percent Inhibition vs. positive control: 44%
  Mean Increase in Weight of Inflammed Ear (± S.E.): 9.5 ± 0.3 mg
[4]; 196 mg/kg ip daily
  % Increase in Survival Time: toxic
[4]; Mus musculus, L1210, 192 h, 59 mg/kg ip daily
  ILS at 59 mg/kg: 90%
[4]; Mus musculus, L1210, 192 h, 132 mg/kg ip daily
  ILS at 132 mg/kg: 54.5%
[4]; Mus musculus, L1210, 192 h, 220 mg/kg ip daily
  ILS at 220 mg/kg: 63.6%
[4]; Mus musculus, L1210, 192 h, 275 mg/kg ip daily
  ILS at 275 mg/kg: 30.6%
[5]; 50 mg/kg daily, hydrochloride
  T/C % (mean survival time): 142% and 138% and 141%
[5]; 100 mg/kg daily, hydrochloride
  T/C % (mean survival time): 150% and 154% and 138% and 148%
[5]; 200 mg/kg daily, hydrochloride
  T/C % (mean survival time): 155% and 177%
[5]; 300 mg/kg daily
  T/C % (mean survival time): 163%
[5]; 400 mg/kg daily
  T/C % (mean survival time): toxic
[6]; 1 uM
  inhibition at 1 µM: 24%
[6]
  inhibition at 10 µM: 90%

## N#Cc1cc(O)c(O)c(O)c1 [3,4,5-trihydroxybenzonitrile]
[7]; 118 mg/kg
  % Increase in Survival Time: 34.0%
[7]; 157 mg/kg
  % Increase in Survival Time: 28.0%
[8]; 50 mg/kg
  % Increase in Survival Time: 15% and 20%
[8]; 200 mg/kg
  % Increase in Survival Time: 26% and 39%
[8]; 400 mg/kg
  % Increase in Survival Time: 26%

## Cl.N=C(N)c1cc(O)c(O)c(O)c1 [3,4,5-trihydroxybenzamidine.HCl, 3,4,5-trihydroxybenzamidine-HCl]
[2]
  initial rate of decrease in optical density (518 nm): 4.912 units/min.
[3]
  Percent Inhibition vs. positive control: 24%
  Mean Increase in Weight of Inflammed Ear (± S.E.): 13.0 ± 0.3 mg
[4]; Mus musculus, L1210, 192 h, 200 mg/kg ip daily
  ILS at 200 mg/kg: 43.5%
[4]; Mus musculus, L1210, 192 h, 300 mg/kg ip daily
  ILS at 300 mg/kg: 10.2%
[6]
  inhibition at 10 µM: 75%

— patent US5183828A, “Polyhydroxybenzoic acid derivatives” (priority 1990, dated 1993)
